The values below are quoted from earlier work in patent publication US20060280691A1 (University of Alberta, priority 2005, published 2006).

What is called MIC90 is the lowest concentration that inhibits either 90% of growth or 90% of the strains tested, depending on the study. One may read the MIC as the smallest concentration in the dilution series that meets the test's criterion for growth inhibition.

SMILES strings stand for the structures. Values after ≈ are worked out from the molar mass of the structure shown.

The subject of series [1] is Pseudomonas aeruginosa.
The subject of series [2] is Neisseria gonorrhoeae.
Series [3] concerns Streptococcus pyogenes.
Series [4] deals with Bacillus anthracis.

Regarding `O=C(O)c1cn(C2CC2)c2cc(N3CCNCC3)c(F)cc2c1=O` [Ciprofloxacin, ciprofloxacin], the MIC90 is 4 mg/L (≈ 12.1 µM) in series [1], 0.004 mg/L (≈ 0.0121 µM) in series [2] and 1 mg/L (≈ 3.02 µM) in series [3]. In series [4], the minimum inhibitory concentration (MIC) is 1.6 mg/L (≈ 4.83 µM).
